Where “and” joins values, the source holds several entries; their conditions need not be identical. Equal entries are not always repeated. Where two headings read alike, the source gives them in different places. Values belong to the compound of their own block, whether it stands above or below them.
Experiments:
[1] = Kanamycin and tobramycin plasma PK after IV bolus in dogs; assay type: in vivo, Beagle dogs
Experimental: (§1) Adult Beagle dogs weighing approximately 10 to 15 kg were used in the study. The animals were housed at Sinclair Research Center, Columbia, Mo. either individually or in pairs in over-sized dog runs. […] A 12-hour light/12-hour dark photoperiod was maintained. Room temperature was set to be maintained at 20±5° C. Relative humidity was monitored but not controlled. Animal room and pen cleaning were performed according to the testing facility (Sinclair) SOPs.
(§2) Animals were fasted overnight prior to drug administration and throughout the blood collection period.
(§3) Adult female Beagle dogs, weighing 9-15 kg were used in the oral and IV studies. Dogs were fasted overnight before the beginning of each study but were allowed free access to water. On the day of the study, one pre-dose blood sample of 3 mL was collected from each animal.
(§4) After administration of the drug, 3 mL blood samples were collected from the brachial vein at various time-points up to 240 minutes (4 hours) post-administration. Blood samples were collected into new heparinized monovette sampling syringes. The samples were placed on ice before being centrifuged for 10 minutes at approximately 2750 rpm at 2-8° C. Each tube was labeled with the dog ID # and time-point, and they were stored at −20° C. pending shipment.
Plasma samples were diluted appropriately with the kit assay buffer.
The maximum plasma concentration (Cmax) values and their times of occurrence (Tmax) were obtained directly from the plasma concentration vs. time profiles. The areas under the plasma concentration-time curves (AUClast) were estimated by the linear trapezoidal rule from time zero to the time of the last observed plasma concentration.

in vivo = details: female, beagle, dog, po
Experimental: as §1, §2, §3, §4
Plasma samples were diluted appropriately with the kit assay buffer. […]

[2] = female, beagle, dog, in vivo, iv, 0.1 mg

concentration at 0 min ([1]; female, Beagle, dog, plasma, iv, 0.1 mg, single IV bolus 0.10 mg, 0 min, read-out: Plasma Concentration, Mean): 0 ng/mL | concentration at 0 min ([1]; female, Beagle, dog, plasma, iv, 0.1 mg, single IV bolus 0.10 mg, 0 min, read-out: Plasma Concentration, individual dogs): 0 ng/mL | concentration at 5 min ([1]; female, Beagle, dog, plasma, iv, 0.1 mg, single IV bolus 0.10 mg, 5 min): 40.8 ng/mL | concentration at 10 min ([1]; female, Beagle, dog, plasma, iv, 0.1 mg, single IV bolus 0.10 mg, 10 min): 38.6 ng/mL | concentration at 15 min ([1]; female, Beagle, dog, plasma, iv, 0.1 mg, single IV bolus 0.10 mg, 15 min): 40.3 ng/mL | concentration at 20 min ([1]; female, Beagle, dog, plasma, iv, 0.1 mg, single IV bolus 0.10 mg, 20 min): 32.1 ng/mL | concentration at 30 min ([1]; female, Beagle, dog, plasma, iv, 0.1 mg, single IV bolus 0.10 mg, 30 min): 34.6 ng/mL | concentration at 40 min ([1]; female, Beagle, dog, plasma, iv, 0.1 mg, single IV bolus 0.10 mg, 40 min, read-out: Plasma Concentration, Mean): 27.2 ng/mL | concentration at 40 min ([1]; female, Beagle, dog, plasma, iv, 0.1 mg, single IV bolus 0.10 mg, 40 min, read-out: Plasma Concentration, individual dogs): 29.9 ng/mL | concentration at 60 min ([1]; female, Beagle, dog, plasma, iv, 0.1 mg, single IV bolus 0.10 mg, 60 min, read-out: Plasma Concentration, Mean): 25.6 ng/mL | concentration at 60 min ([1]; female, Beagle, dog, plasma, iv, 0.1 mg, single IV bolus 0.10 mg, 60 min, read-out: Plasma Concentration, individual dogs): 31 ng/mL | concentration at 90 min ([1]; female, Beagle, dog, plasma, iv, 0.1 mg, single IV bolus 0.10 mg, 90 min): 9.24 ng/mL | concentration at 120 min ([1]; female, Beagle, dog, plasma, iv, 0.1 mg, single IV bolus 0.10 mg, 120 min): 10 ng/mL | concentration at 240 min ([1]; female, Beagle, dog, plasma, iv, 0.1 mg, single IV bolus 0.10 mg, 240 min): 1.61 ng/mL | AUC ([1]; female, Beagle, dog, plasma, iv, 0.1 mg, single IV bolus 0.10 mg, read-out: AUC, Mean (converted)): 54.2 ng·h/mL | AUC ([1]; female, Beagle, dog, plasma, iv, 0.1 mg, single IV bolus 0.10 mg, read-out: AUC, individual dogs (converted)): 46.5 ng·h/mL | Cmax ([1]; female, Beagle, dog, plasma, iv, 0.1 mg, single IV bolus 0.10 mg, read-out: Cmax, Mean): 50 ng/mL | AUC, individual dogs ([1]; single IV bolus 0.10 mg): 3806 ng·min/mL and 3169 ng·min/mL | Cmax, Mean ([1]; single IV bolus 0.10 mg): 50.21 ng/mL | Tmax, individual dogs ([1]; single IV bolus 0.10 mg): 15 min and 60 min | Plasma Concentration, individual dogs ([1]; single IV bolus 0.10 mg, 0 min): 0 ng/mL | Plasma Concentration, individual dogs ([1]; single IV bolus 0.10 mg, 10 min): 37.75 ng/mL and 7.52 ng/mL | Plasma Concentration, individual dogs ([1]; single IV bolus 0.10 mg, 15 min): 9.70 ng/mL | Plasma Concentration, individual dogs ([1]; single IV bolus 0.10 mg, 20 min): 39.87 ng/mL and 14.59 ng/mL | Plasma Concentration, individual dogs ([1]; single IV bolus 0.10 mg, 40 min): 34.08 ng/mL and 17.58 ng/mL | Plasma Concentration, individual dogs ([1]; single IV bolus 0.10 mg, 60 min): 27.79 ng/mL and 18.01 ng/mL | Plasma Concentration, individual dogs ([1]; single IV bolus 0.10 mg, 90 min): 0 ng/mL and 9.81 ng/mL and 17.91 ng/mL | Plasma Concentration, individual dogs ([1]; single IV bolus 0.10 mg, 120 min): 0 ng/mL and 13.36 ng/mL and 16.63 ng/mL | Plasma Concentration, individual dogs ([1]; single IV bolus 0.10 mg, 240 min): 0 ng/mL (2×) and 4.84 ng/mL
SMILES: NC[C@H]1O[C@H](O[C@H]2[C@H](O)[C@@H](O[C@H]3O[C@H](CO)[C@@H](O)[C@H](N)[C@H]3O)[C@H](N)C[C@@H]2N)[C@H](O)[C@@H](O)[C@@H]1O [Kanamycin]
Cmax, individual dogs ([1]; single IV bolus 0.10 mg): 77.73 ng/mL and 54.88 ng/mL and 18.01 ng/mL | Plasma Concentration, individual dogs ([1]; single IV bolus 0.10 mg, 5 min): 77.73 ng/mL and 40.56 ng/mL and 3.97 ng/mL | Plasma Concentration, individual dogs ([1]; single IV bolus 0.10 mg, 30 min): 43.81 ng/mL and 42.52 ng/mL and 17.48 ng/mL

bioavailability (in vivo): 15% | AUC ([1]; female, Beagle, dog, in vivo, iv, 0.1 mg, AUC, Mean): 29.7 ng·h/mL | Cmax ([1]; female, Beagle, dog, in vivo, iv, 0.1 mg, Cmax, individual dogs): 38.4 ng/mL | Tmax ([1]; female, Beagle, dog, in vivo, iv, 0.1 mg, individual dogs): 5 min | Cmax, Mean [1, 2]: 31.22 ng/mL | Tmax, individual dogs [1, 2]: 5 min | Cmax ([1]; female, beagle, dog, in vivo, iv, 0.1 mg, Cmax, Mean): 31 ng/mL | Tmax ([1]; female, beagle, dog, in vivo, iv, 0.1 mg, Mean): 5 min
SMILES: NC[C@H]1O[C@H](O[C@H]2[C@H](O)[C@@H](O[C@H]3O[C@H](CO)[C@@H](O)[C@H](N)[C@H]3O)[C@H](N)C[C@@H]2N)[C@H](N)C[C@@H]1O [Tobramycin]

Source: patent publication US9526785B2, “Pharmaceuticals for oral delivery” (Enteris BioPharma, Inc., priority 2013, dated 2016)
